Results from US4916121A, “Antitumor composition comprising pyrimidine type nucleic acid derivative and 1-[(2-hydroxyethoxy)methyl]uracil derivative” (Teijin Limited, priority 1985, dated 1990).
Like-named read-outs stand apart in the source and are kept apart here.

Legend:
[1] = molecular target: T1, pyrimidine nucleoside phosphorylase (Rattus norvegicus, UniProt F7F0D5); experiment: Inhibition of pyrimidine nucleoside phosphorylase activity in rat small intestine homogenate (decomposition of 5-fluoro-2'-deoxyuridine); assay type: biochemical, SD-strain rat
T1 construct: small intestine homogenates of an SD-strain male rat and a male beagle; from tissue; host or cells: small intestine homogenate of SD-strain male rat
Method: (§1) Inhibitory effects of 1-[(2-hydroxyethoxy)methyl]-5-methyluracil, 1-[(2-hydroxyethoxy)methyl]-5-fluoro-uracil, 1-[(2-hydroxyethoxy)methyl]-5-bromouracil on pyrimidine nucleoside phosphorylase activity in the small intestine homogenates of an SD-strain male rat and a male beagle were assayed with a lowering in decomposition rate of 5-fluoro-2'-deoxyuridine (concentration: 0.025 mM) and compared with the same effects of thymidine and deoxyuridine.

[2] = tested on: pyrimidine nucleoside phosphorylase; experiment: Inhibition of pyrimidine nucleoside phosphorylase activity in beagle small intestine homogenate (decomposition of 5-fluoro-2'-deoxyuridine); assay type: biochemical; conditions: for Half-life of 5-fluoro-2'-deoxyuridine in presence of inhibitor / Inhibitory percentage: 0.4% w/v beagle small intestine homogenate, pH 7.0, 37° C.
Method: as §1

[3] = as above; assay type: biochemical; conditions: dog, small intestine homogenate, pH 7
Method: as §1

[4] = tested on: pyrimidine nucleoside phosphorylase; conditions: cited from earlier work
[5] = tested on: established cell line derived from a mouse; conditions: same molar concentration, in vitro; cited from earlier work
[6] = tested on: mouse leukemia L1210; experiment: Antitumor effect on mouse leukemia L1210 (increase in life span), oral administration; assay type: in vivo; conditions: days 1, 3, 5
Text: The antitumor effect for mouse leukemia L1210 by a simultaneous oral administration of the compounds of the present invention 3',5'-didodecanoyl-5-fluoro-2'-deoxyuridine and 1-[[2-(octadecanoyloxy)ethoxy]methyl]-5-methyluracil was compared with those of (a) 5-fluoro-2'-deoxyuridine alone, (b) 3',5'-didodecanoyl-5-fluoro-2'-deoxyuridine alone, and (c) a simultaneous oral administration of 3',5'-didodecanoyl-5-fluoro-2'-deoxyuridine and 1-[(2-hydroxyethoxy)methyl]-5-methyluracil.
10^5 ascite tumor cells of mouse leukemia L1210 7 days after transplantation were transplanted intraperioneally into mouse (.male.8 weeks, Ca 25-26 g, 5 mice/group) and provided for experiments. 24 hours after transplantation of the tumor cells, the pharmaceuticals were administered orally three times on day 1, day 3 and day 5.
The antitumor effect of the pharmaceuticals were shown by the increase in life span (ILS) of the group administered with pharamaceuticals relative to the control group (with no pharmaceutical administered) (line extension %).

[7] = Enzymatic hydrolyzability in rat duodenum epithelial homogenate; assay type: in vitro ADME; conditions: rat duodenum epithelial homogenate 1% w/v, pH 7.0, 37° C.
Method: The hydrolysis rates of the compounds of the present invention were measured at 37° C. in rat duodenum epithelial homogenate (1%, w/v; pH 7.0).

[8] = Hydrophilic properties: retention time in normal phase HPLC (Nucleosil 5CN); assay type: physicochemical; conditions: n-hexane:ethanol = 88:12, 1.2 ml/min, index of hydrophilic properties
Method: The retention times of the compounds of the present invention in normal phase system high performance liquid chromatograph (Nucleosil) 5 CN column were measured.

[9] = Lipid solubility: retention time in reversed phase HPLC (Lichrosorb RP-18); assay type: physicochemical; conditions: RP-18 4.0 × 130 mm, 1.2 ml/min, index of lipid solubility
Method: The retention time of the compounds of the present invention in reversed phase system high performance liquid chromatograph (Lichrosorb RP-18 column) was measured in two kinds of solvent systems.

[10] = Inhibition of pyrimidine nucleoside phosphorylase activity in beagle small intestine homogenate (decomposition of 5-fluoro-2'-deoxyuridine); assay type: biochemical; conditions: dog; inhibitor 0.025 mM; 0.4% w/v beagle small intestine homogenate, pH 7.0, 37° C.
[11] = molecular target: T1, pyrimidine nucleoside phosphorylase; experiment: Inhibition of pyrimidine nucleoside phosphorylase activity in rat small intestine homogenate (decomposition of 5-fluoro-2'-deoxyuridine); assay type: biochemical, SD-strain rat; conditions: inhibitor 0.025 mM; 0.09% w/v rat small intestine homogenate, pH 7.0, 37° C.
[12] = tested on: thymidine phosphorylase; experiment: Inhibition of thymidine phosphorylase activity and enzymatic stability in small intestine; assay type: biochemical; conditions: rat and beagle small intestine
Method: as §1

[13] = inhibitor 0.025 mM, 0.09% w/v rat small intestine homogenate, pH 7.0, 37° C.
[14] = pH 7, read-out: Inhibitory percentage
[15] = rat, small intestine homogenate, pH 7
[16] = inhibitor 0.025 mM, 0.09% w/v rat small intestine homogenate, pH 7.0, 37° C., read-out: Inhibitory percentage

T1 sequence (F7F0D5 1-312): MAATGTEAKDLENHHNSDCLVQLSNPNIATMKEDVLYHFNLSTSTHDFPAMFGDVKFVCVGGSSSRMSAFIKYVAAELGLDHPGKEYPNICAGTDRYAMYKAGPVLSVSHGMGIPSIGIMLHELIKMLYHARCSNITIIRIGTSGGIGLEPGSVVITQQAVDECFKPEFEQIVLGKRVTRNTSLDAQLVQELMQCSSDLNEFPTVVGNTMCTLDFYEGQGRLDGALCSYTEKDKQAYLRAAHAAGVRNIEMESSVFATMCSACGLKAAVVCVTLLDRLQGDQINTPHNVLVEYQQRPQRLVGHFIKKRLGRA

Question: With `O=c1ccn([C@H]2C[C@H](O)[C@@H](CO)O2)c(=O)[nH]1` [Deoxyuridine, reference compound] as the molecule, how does the “Half-life of 5-fluoro-2'-deoxyuridine in presence of inhibitor” value (“Half-life … of inhibitor” for short) [1, 13] read?
Answer: 0.37 h

Question: What about the inhibition at 25 µM [1, 14] of the same molecule?
Answer: 23.4%

Question: What about the half-life at 25 µM [1, 15] of the same molecule?
Answer: 1.1 h

Question: What about the “Half-life … of inhibitor” value ([2]; inhibitor 0.025 mM) of the same molecule?
Answer: 0.508 h

Question: And the Inhibitory percentage ([2]; inhibitor 0.025 mM)?
Answer: 8.8%

Question: What about the half-life at 25 µM [3] of the same molecule?
Answer: 0.538 h

Question: With `O=c1[nH]c(=O)n(COCCO)cc1Br` [1-[(2-hydroxyethoxy)methyl]-5-bromouracil] as the molecule, how does the “Half-life … of inhibitor” value ([1]; inhibitor 0.01 mM, 0.09% w/v rat small intestine homogenate, pH 7.0, 37° C.) read?
Answer: 0.542 h

Question: What about the inhibition at 10 µM ([1]; inhibitor 0.01 mM, 0.09% w/v rat small intestine homogenate, pH 7.0, 37° C., read-out: Inhibitory percentage) of the same molecule?
Answer: 47.7%

Question: And the half-life at 10 µM [1, 15]?
Answer: > 16.7 h

Question: What about the “Half-life … of inhibitor” value ([2]; inhibitor 0.01 mM) of the same molecule?
Answer: 1.04 h

Question: What about the Inhibitory percentage ([2]; inhibitor 0.01 mM) of the same molecule?
Answer: 55.5%

Question: And the half-life at 10 µM [3]?
Answer: > 16.7 h

Question: Which results are given for `O=c1[nH]c(=O)n([C@H]2C[C@H](O)[C@@H](CO)O2)cc1F` [5-Fluoro-2'-deoxyuridine, 5-fluoro-2'-deoxyuridine, reference compound]?
Answer: Half-life of 5-fluoro-2'-deoxyuridine ([1]; rat, small intestine homogenate, 25 µM, pH 7): 0.283 h; Half-life of 5-fluoro-2'-deoxyuridine ([2]; dog, small intestine homogenate, 25 µM, pH 7): 0.463 h; half-life in blood (in words) ([4]; after administration in living bodies): shorter half-life in blood; decomposition by pyrimidine nucleoside phosphorylase (in words) ([4]; living bodies): rapidly decomposed; antitumor activity relative to 5-fluorouracil [5]: 100 fold; ILS ([6]; 10 mg/kg/one dose alone): 15%; ILS ([6]; 30 mg/kg/one dose alone): 10%; ILS ([6]; 100 mg/kg/one dose alone): 15%; ILS ([6]; 300 mg/kg/one dose alone): 10%

Question: Which Hydrolysis rate constant [7] does the source give for `CCCCCCCCCCCCCCCCCCCC(=O)OCCOCn1cc(C)c(=O)[nH]c1=O` [1-[[2-(eicosanoyloxy)-ethoxy]-methyl]-5-methyluracil] here?
Answer: 0.052 min.^-1

Question: And the Retention time [8]?
Answer: 5.48 min

Question: With `CCCCCCCCCCCC(=O)OC[C@H]1O[C@@H](n2cc(F)c(=O)[nH]c2=O)C[C@@H]1OC(=O)CCCCCCCCCCC` [3'5'-didodecanoyl-5-fluoro-2'-deoxyuridine] as the molecule, how does the ILS ([6]; 10 mg/kg/one dose alone) read?
Answer: 0%

Question: What about the ILS ([6]; 30 mg/kg/one dose alone) of the same molecule?
Answer: 5%

Question: What about the ILS ([6]; 100 mg/kg/one dose alone) of the same molecule?
Answer: 15%

Question: What about the ILS ([6]; 300 mg/kg/one dose alone) of the same molecule?
Answer: 40%

Question: What about the “Retention time (b) Acetonitrile:acetic acid (999:1)” value [9] of the same molecule?
Answer: 3.00 min

Question: What about the “Retention time (a) Acetonitrile:water (19:1)” value [9] of the same molecule?
Answer: 3.96 min

Question: With `CCCCCCCCCCCCCC(=O)OC[C@H]1O[C@@H](n2cc(F)c(=O)[nH]c2=O)C[C@@H]1OC(=O)CCCCCCCCCCCCC` [3'5'-ditetradecanoyl-5-fluoro-2'-deoxyuridine] as the molecule, how does the Hydrolysis rate constant [7] read?
Answer: 0.027 min.^-1

Question: What about the Retention time [8] of the same molecule?
Answer: 5.38 min

Question: For `CCCCCCCCCCCCCCCC(=O)OCCOCn1cc(C)c(=O)[nH]c1=O` [1-[[2-(Hexadecanoyloxy)-ethoxy]-methyl]-5-methyluracil], which “Retention time (b) Acetonitrile:acetic acid (999:1)” value [9] is on record?
Answer: 3.15 min

Question: What about the “Retention time (a) Acetonitrile:water (19:1)” value [9] of the same molecule?
Answer: 3.53 min

Question: With `Cc1cn([C@H]2C[C@H](O)[C@@H](CO)O2)c(=O)[nH]c1=O` [Thymidine, reference compound] as the molecule, how does the “Half-life … of inhibitor” value [1, 13] read?
Answer: 0.51 h

Question: What about the inhibition at 25 µM [1, 14] of the same molecule?
Answer: 44.4%

Question: What about the “Half-life … of inhibitor” value ([2]; inhibitor 0.025 mM) of the same molecule?
Answer: 0.968 h

Question: What about the Inhibitory percentage ([2]; inhibitor 0.025 mM) of the same molecule?
Answer: 52.2%

Question: What about the half-life at 25 µM [10] of the same molecule?
Answer: 0.45 h

Question: What about the half-life at 25 µM [11] of the same molecule?
Answer: 1.48 h

Question: What about the “inhibitory activity against thymidine phosphorylase (in words)” value [12] of the same molecule?
Answer: more potenty inhibited by thymidine than by deoxyuridine

Question: For `O=c1[nH]c(=O)n(COCCO)cc1F` [1-[(2-hydroxyethoxy)methyl]-5-fluorouracil], which “Half-life … of inhibitor” value [1, 13] is on record?
Answer: 0.823 h

Question: And the inhibition at 25 µM [1, 16]?
Answer: 65.6%

Question: What about the half-life at 25 µM [1, 15] of the same molecule?
Answer: > 16.7 h

Question: And the “Half-life … of inhibitor” value ([2]; inhibitor 0.025 mM)?
Answer: 0.78 h

Question: And the Inhibitory percentage ([2]; inhibitor 0.025 mM)?
Answer: 40.6%

Question: And the half-life at 25 µM [3]?
Answer: > 16.7 h

Question: For `CCCCCCCCCCCCCCCCCC(=O)OCCOCn1cc(C)c(=O)[nH]c1=O` [1-[[2-(octadecanoyloxy)ethoxy]methyl]-5-methyluracil], which ILS ([6]; 450 mg/kg/one dose alone) is on record?
Answer: 12%

Question: Which “Half-life … of inhibitor” value [1, 13] does the source give for `Cc1cn(COCCO)c(=O)[nH]c1=O` [1-[(2-hydroxyethoxy)methyl]-5-methyluracil] here?
Answer: 1.677 h

Question: And the inhibition at 25 µM [1, 16]?
Answer: 83.1%

Question: And the half-life at 25 µM [1, 15]?
Answer: > 16.7 h

Question: What about the “Half-life … of inhibitor” value ([2]; inhibitor 0.025 mM) of the same molecule?
Answer: 1.42 h

Question: What about the Inhibitory percentage ([2]; inhibitor 0.025 mM) of the same molecule?
Answer: 67.3%

Question: And the half-life at 25 µM [3]?
Answer: > 16.7 h

Question: What about the ILS ([6]; 200 mg/kg/one dose alone) of the same molecule?
Answer: 12%
